Test results from patent US9932314B2, “Pyrazole compounds and their use as T-type calcium channel blockers” (IDORSIA PHARMACEUTICALS LTD, priority 2015, dated 2018).

Target: T1, voltage-dependent T-type calcium channel subunit alpha-1G (Cav3.2) (Homo sapiens, UniProt O95180)
T1 construct: expressed in transfected cells; host or cells: HEK293
Assay: FLIPR calcium flux assay, HEK293 cells recombinantly expressing Cav3.2
Format: cell-based
Conditions: Cav3.2-channel, Fluo-4-AM, 3 min incubation, stimulation with 10 mM CaCl2
Procedure, shortened: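 HEK293 cells stably expressing human Cav3.2 were loaded with Fluo-4-AM. Compounds diluted in TEAC buffer (pH 7.2) were preincubated for 3 min, then Ca2+ entry was triggered by 10 mM final CaCl2. Inhibition curves were fitted sigmoidally to the area under the fluorescence trace.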

T1 sequence (O95180 whole entry): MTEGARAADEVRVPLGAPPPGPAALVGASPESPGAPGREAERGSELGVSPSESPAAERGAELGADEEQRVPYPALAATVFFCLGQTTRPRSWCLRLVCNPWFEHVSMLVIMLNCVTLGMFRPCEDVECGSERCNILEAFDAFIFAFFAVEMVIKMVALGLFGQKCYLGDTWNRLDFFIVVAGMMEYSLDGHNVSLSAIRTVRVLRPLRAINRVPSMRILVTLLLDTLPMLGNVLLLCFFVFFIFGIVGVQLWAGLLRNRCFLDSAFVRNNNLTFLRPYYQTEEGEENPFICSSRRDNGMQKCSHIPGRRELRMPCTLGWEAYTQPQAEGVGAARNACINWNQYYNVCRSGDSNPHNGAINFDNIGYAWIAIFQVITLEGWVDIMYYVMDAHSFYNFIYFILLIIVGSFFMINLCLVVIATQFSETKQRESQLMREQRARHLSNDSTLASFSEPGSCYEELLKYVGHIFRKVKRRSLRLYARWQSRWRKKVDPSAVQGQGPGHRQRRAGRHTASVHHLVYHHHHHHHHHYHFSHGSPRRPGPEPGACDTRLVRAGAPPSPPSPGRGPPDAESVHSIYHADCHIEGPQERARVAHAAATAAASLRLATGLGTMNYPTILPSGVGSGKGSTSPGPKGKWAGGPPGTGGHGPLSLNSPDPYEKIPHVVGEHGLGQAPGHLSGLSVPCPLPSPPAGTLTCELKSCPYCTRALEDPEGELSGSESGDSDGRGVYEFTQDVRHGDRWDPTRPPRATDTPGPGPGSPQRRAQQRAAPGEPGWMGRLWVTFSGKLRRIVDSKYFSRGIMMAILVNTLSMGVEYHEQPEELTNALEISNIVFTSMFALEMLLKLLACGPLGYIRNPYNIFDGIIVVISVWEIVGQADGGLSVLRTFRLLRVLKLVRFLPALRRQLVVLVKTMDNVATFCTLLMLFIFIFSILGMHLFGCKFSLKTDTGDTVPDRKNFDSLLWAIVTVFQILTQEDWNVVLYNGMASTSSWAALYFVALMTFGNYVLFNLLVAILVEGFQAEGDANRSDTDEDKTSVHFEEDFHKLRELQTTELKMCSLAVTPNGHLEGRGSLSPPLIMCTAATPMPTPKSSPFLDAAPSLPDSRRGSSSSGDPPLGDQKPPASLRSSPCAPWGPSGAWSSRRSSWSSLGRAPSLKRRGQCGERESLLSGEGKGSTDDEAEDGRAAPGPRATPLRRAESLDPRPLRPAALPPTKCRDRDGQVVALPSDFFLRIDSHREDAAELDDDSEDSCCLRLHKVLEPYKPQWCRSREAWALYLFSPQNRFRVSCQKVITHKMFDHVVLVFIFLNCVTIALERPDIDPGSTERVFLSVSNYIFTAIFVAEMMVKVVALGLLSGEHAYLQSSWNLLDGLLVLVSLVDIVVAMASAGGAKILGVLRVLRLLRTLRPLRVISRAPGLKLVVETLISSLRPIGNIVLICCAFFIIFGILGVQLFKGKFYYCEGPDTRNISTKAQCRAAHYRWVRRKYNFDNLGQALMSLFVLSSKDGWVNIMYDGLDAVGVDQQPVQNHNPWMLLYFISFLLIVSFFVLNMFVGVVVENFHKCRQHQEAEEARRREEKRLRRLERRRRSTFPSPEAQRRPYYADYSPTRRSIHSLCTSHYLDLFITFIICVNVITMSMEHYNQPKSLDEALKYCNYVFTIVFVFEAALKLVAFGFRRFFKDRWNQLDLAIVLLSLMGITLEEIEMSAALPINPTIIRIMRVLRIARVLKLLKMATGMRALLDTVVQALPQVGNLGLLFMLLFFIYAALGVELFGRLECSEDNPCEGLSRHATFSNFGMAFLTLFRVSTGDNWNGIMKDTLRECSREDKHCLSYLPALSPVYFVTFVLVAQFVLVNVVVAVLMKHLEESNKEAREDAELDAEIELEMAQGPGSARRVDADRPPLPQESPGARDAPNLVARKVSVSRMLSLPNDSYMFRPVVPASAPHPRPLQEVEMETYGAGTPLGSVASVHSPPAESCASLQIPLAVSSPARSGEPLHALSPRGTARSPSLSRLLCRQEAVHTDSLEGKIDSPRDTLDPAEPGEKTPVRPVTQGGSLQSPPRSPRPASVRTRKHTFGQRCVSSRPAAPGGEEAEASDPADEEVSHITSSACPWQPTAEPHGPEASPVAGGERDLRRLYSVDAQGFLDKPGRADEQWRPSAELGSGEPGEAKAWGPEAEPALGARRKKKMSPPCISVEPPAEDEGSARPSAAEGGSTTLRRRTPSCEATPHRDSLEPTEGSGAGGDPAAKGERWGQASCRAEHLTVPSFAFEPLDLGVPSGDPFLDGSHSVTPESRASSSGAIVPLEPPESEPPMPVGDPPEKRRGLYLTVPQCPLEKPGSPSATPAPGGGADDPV

IC50 [nM]	SMILES
47	CC(C)c1ccc(CC(=O)Nc2ccn(Cc3ccc(OC4CC4)cc3)n2)cc1 [Example 195, N-[1-(4-Cyclopropoxy-benzyl)-1H-pyrazol-3-yl]-2-(4-isopropyl-phenyl)-acetamide]
17	Cc1cc(CC(=O)Nc2ccn(Cc3ccc(F)c(C#N)n3)n2)ccc1OC(F)(F)F [Example 410, N-[1-(6-Cyano-5-fluoro-pyridin-2-ylmethyl)-1H-pyrazol-3-yl]-2-(3-methyl-4-trifluoromethoxy-phenyl)-acetamide]
